# Laboratory results from patent US9849104B2 (Gemphire Therapuetics Inc., priority 2015, dated 2017).
# Tested on: fibrinogen
# Assay: Fibrinogen in hypercholesterolemic patients, post hoc analysis of Study A4141001
# Assay type: in vivo, human
# Settings: for Difference in fibrinogen change, Gem-placebo: subgroup baseline >400 mg/dL
# Protocol: Week 0) and the end (Visit T8, Week 8). Analyses of covariance (ANCOVA) methods used in the original study A4141001 were again utilized in these analyses. For fibrinogen, baseline was defined as the last pretreatment visit, and endpoint was the last visit up to and including the day after last dose of medication. The least-squares means and p-values for change from baseline in fibrinogen were calculated using an ANCOVA model with the effects of baseline lipid value and treatment. Also, medians and p-values for percent change from baseline. […] This, consequently, was the definition for the modified intent-to treat (MITT) population.
structure (smiles),measurement,setting,value
"CC(C)(CCCCOCCCCC(C)(C)C(=O)O)C(=O)O [Gemcabene, 6,6′-oxybis(2,2-dimethylhexanoic acid)]",Difference in fibrinogen change = Gem − Placebo,"MITT, Gemcabene 300 mg",−13.0
same,"Difference in fibrinogen change, Gem-placebo",Gem 300 mg,5.0
same,"Difference in fibrinogen change, Gem-placebo",Gem 900 mg,−34.0
